Experiment [1] concerns TNFα production in LPS-stimulated human monocytes. Briefly: Cot Monocyte TNFα Cell Based Assay. The settings on record: Homo sapiens, Monocyte, read-out: EC50 TNF. The procedure, abridged:
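Cells at 5,000/well were pretreated with compound for 1 h at 37 °C (0.5% DMSO final), then stimulated with 50 pg/ml LPS for 4 h at 37 °C. Supernatant TNFα was measured by two-antibody TR-FRET after overnight room-temperature incubation; values are percent of control between unstimulated and stimulated wells.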

The target of experiment [2] is T1, human Cot catalytic domain (30-397 amino acids) (Homo sapiens, UniProt P41279).
T1 construct: Purified recombinant human Cot catalytic domain (30-397 amino acids) was purchased from Cama Biosciences; purchased Cama Biosciences (so in the source)
T1 sequence (P41279 30-397): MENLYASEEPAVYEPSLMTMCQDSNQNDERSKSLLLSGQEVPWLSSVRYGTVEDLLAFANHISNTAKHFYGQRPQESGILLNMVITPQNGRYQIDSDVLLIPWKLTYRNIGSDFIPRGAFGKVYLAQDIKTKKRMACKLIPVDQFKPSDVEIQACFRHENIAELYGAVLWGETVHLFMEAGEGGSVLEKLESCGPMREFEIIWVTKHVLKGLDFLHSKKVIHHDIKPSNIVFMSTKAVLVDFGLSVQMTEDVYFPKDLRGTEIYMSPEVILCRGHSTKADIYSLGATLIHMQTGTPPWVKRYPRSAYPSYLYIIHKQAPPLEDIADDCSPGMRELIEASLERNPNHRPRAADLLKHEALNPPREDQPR
Briefly: High Throughput Cot Biochemical Assay (KinEASE TR-FRET). To be noted: read-out: IC50 HTRF. An outline of the steps: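 Reaction of 5 nM recombinant human Cot catalytic domain (aa 30-397) with 1 μM STK3 peptide (XL665-labeled) and 400 μM ATP in 10 mM MOPS pH 7.0, 10 mM MgOAc, 1 mM DTT, 0.5 mg/mL BSA, 0.1% DMSO. Phosphopeptide detected by TR-FRET with europium anti-phospho antibody.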

Where [3] appears, read: TNFα in LPS-stimulated human monocytes.
Where [4] appears, read: Cot biochemical HTRF (KinEASE TR-FRET) assay.
[5] abbreviates: LPS-stimulated human monocytes, TNFα TR-FRET.
The mark [6] stands for this setting: Cot KinEASE TR-FRET, 400 μM ATP.
Where [7] appears, read: Cot KinEASE TR-FRET (HTRF) biochemical assay, 400 μM ATP.

Read-outs that look alike come from different tables or passages of the source.

`CC(C)(C)N1CCC(n2cc([C@@H](Nc3cc(Cl)c4ncc(C#N)c(NCC5CC5)c4c3)c3ccc(Cl)cc3)nn2)CC1` [Example 698, (S)-6-(((1-(1-(tert-butyl)piperidin-4-yl)-1H-1,2,3-triazol-4-yl)(4-chlorophenyl)methyl)amino)-8-chloro-4-((cyclopropylmethyl)amino) quinoline-3-carbonitrile]: the concentration for a half-maximal effect (EC50) in experiment [1] (setting [3]) was found to be 16100 nM. Besides, the IC50 in experiment [2] (setting [4]) came to 317 nM.

Regarding `Cc1c(-c2ccncc2)cccc1[C@H](Nc1cc(Cl)c2ncc(C#N)c(NCC(C)(C)C)c2c1)c1cn(C2(C(F)F)CC2)nn1` [Example 1085, (S)-8-chloro-6-(((1-(1-(difluoromethyl)cyclopropyl)-1H-1,2,3-triazol-4-yl)(2-methyl-3-(pyridin-4-yl)phenyl)methyl)amino)-4-(neopentylamino)quinoline-3-carbonitrile], the EC50 in experiment [1] (setting [5]) turned out to be 205 nM. For the same molecule, the IC50 in experiment [2] (setting [6]) worked out at 5 nM.

For the molecule `CC1CCN1C(=O)c1cccc([C@H](Nc2cc(Cl)c3ncc(C#N)c(Nc4ccc(F)c(Cl)c4)c3c2)c2cn(C3CCN(C(C)(C)C)CC3)nn2)c1` (stereo partly drawn) [Example 593, 6-(((1S)-(1-(1-(tert-butyl)piperidin-4-yl)-1H-1,2,3-triazol-4-yl)(3-(2-methylazetidine-1-carbonyl)phenyl)methyl)amino)-8-chloro-4-((3-chloro-4-fluorophenyl)amino)quinoline-3-carbonitrile], the EC50 in experiment [1] (setting [3]) was found to be 147 nM. Besides, in experiment [2] (setting [4]), the 50% inhibitory concentration (IC50) turned out to be 1 nM.

With `[2H][C@](Nc1cc(Cl)c2ncc(C#N)c(N[C@H](C)C(C)(C)C)c2c1)(c1ccc(F)cc1)c1cn(C2CC2)nn1` [Example 188, 8-chloro-6-(((S)-(1-cyclopropyl-1H-1,2,3-triazol-4-yl)(4-fluorophenyl)methyl-d)amino)-4-(((R)-3,3-dimethylbutan-2-yl)amino)quinoline-3-carbonitrile], the EC50 in experiment [1] (setting [3]) turned out to be 203 nM. The IC50 in experiment [2] (setting [7]) is 16 nM.

Regarding `[2H][C@](Nc1cc(Cl)c2ncc(C#N)c(Nc3cnc(F)c(F)c3)c2c1)(c1cccc(C#N)c1)c1c[nH]nn1` [Example 370, (S)-8-chloro-6-(((3-cyanophenyl)(1H-1,2,3-triazol-4-yl)methyl-d)amino)-4-((5,6-difluoropyridin-3-yl)amino)quinoline-3-carbonitrile], the EC50 in experiment [1] (setting [3]) was determined as 417 nM. The IC50 in experiment [2] (setting [7]) worked out at 5 nM.

As for `CN(C)C(=O)c1cccc([C@H](Nc2cc(Cl)c3ncc(C#N)c(NCC(C)(C)C)c3c2)c2cn(C3(C(F)(F)F)CC3)nn2)c1F` [Example 1113, (S)-3-(((8-chloro-3-cyano-4-(neopentylamino)quinolin-6-yl)amino)(1-(1-(trifluoromethyl)cyclopropyl)-1H-1,2,3-triazol-4-yl)methyl)-2-fluoro-N,N-dimethylbenzamide], the EC50 in experiment [1] (setting [5]) was found to be 444 nM. Also, the half-maximal inhibitory concentration (IC50) in experiment [2] (setting [6]) was 22 nM.

As to `[2H][C@](Nc1cc(Cl)c2ncc(C#N)c(Nc3cnc(F)c(Cl)c3)c2c1)(c1cccc(C#N)c1)c1cn(C2CC2)nn1` [Example 303, (S)-8-chloro-4-((5-chloro-6-fluoropyridin-3-yl)amino)-6-(((3-cyanophenyl)(1-cyclopropyl-1H-1,2,3-triazol-4-yl)methyl-d)amino)quinoline-3-carbonitrile], the EC50 in experiment [1] (setting [3]) turned out to be 174 nM. The IC50 in experiment [2] (setting [7]) turned out to be 4 nM.

Consider `[2H][C@](Nc1cc(Cl)c2ncc(C#N)c(N[C@@H](CCC#N)c3ccccc3)c2c1)(c1ccc(F)cc1)c1cn(C2CC2)nn1` [Example 248, 8-chloro-4-(((S)-3-cyano-1-phenylpropyl)amino)-6-(((S)-(1-cyclopropyl-1H-1,2,3-triazol-4-yl)(4-fluorophenyl)methyl-d)amino)quinoline-3-carbonitrile], for which the EC50 in experiment [1] (setting [3]) is > 10000 nM. Besides, the concentration for half-maximal inhibition (IC50) in experiment [2] (setting [7]) stood at 3200 nM.

Consider `[2H][C@](Nc1cc(-c2ccccn2)c2ncc(C#N)c(NCC(C)(C)C)c2c1)(c1ccc(F)cc1)c1cn(C2CC2)nn1` [Compound 28], for which the concentration for a half-maximal effect (EC50) in experiment [1] (setting [3]) is > 1000 nM. The 50% inhibitory concentration (IC50) in experiment [2] (setting [7]) came out at 2000 nM.

Turning to `Cc1c(C#N)cccc1[C@H](Nc1cc(Cl)c2ncc(C#N)c(NCC(C)(C)C)c2c1)c1nnn(C2(C(F)F)CC2)c1F` [Example 1168, (S)-8-chloro-6-(((3-cyano-2-methylphenyl)(1-(1-(difluoromethyl)cyclopropyl)-5-fluoro-1H-1,2,3-triazol-4-yl)methyl)amino)-4-(neopentylamino)quinoline-3-carbonitrile], the EC50 in experiment [1] (setting [5]) was determined as 75 nM. For the same molecule, the IC50 in experiment [2] (setting [6]) turned out to be 4 nM.

With `N#Cc1cnc2c(Cl)cc(N[C@@H](c3ccccc3)c3cn([C@@H]4CCNC[C@H]4O)nn3)cc2c1Nc1cccc(Cl)c1` [Example 535, 8-chloro-4-((3-chlorophenyl)amino)-6-(((S)-(1-((3R,4R)-3-hydroxypiperidin-4-yl)-1H-1,2,3-triazol-4-yl)(phenyl)methyl)amino) quinoline-3-carbonitrile], the concentration giving a half-maximal response (EC50) in experiment [1] (setting [3]) was determined as 500 nM. For the same molecule, in experiment [2] (setting [4]), the IC50 turned out to be 4 nM.

In the case of `CC[C@@H](Nc1c(C#N)cnc2c(Cl)cc(N[C@@H](c3cccc(C(=O)N4CC(F)C4)c3)c3c[nH]nn3)cc12)c1ccccc1` [Example 562, 8-chloro-6-(((S)-(3-(3-fluoroazetidine-1-carbonyl)phenyl)(1H-1,2,3-triazol-4-yl)methyl)amino)-4-(((R)-1-phenylpropyl)amino)quinoline-3-carbonitrile], the EC50 in experiment [1] (setting [3]) amounted to 848 nM. The 50% inhibitory concentration (IC50) in experiment [2] (setting [4]) stood at 4 nM.

Take `CC(C)(C)CNc1c(C#N)cnc2c(C#N)cc(N[C@H](c3cn(C4(C(N)=O)CCOC4)nn3)c3ccccc3Cl)cc12` (stereo partly drawn) [Example 1022, 3-(4-((S)-(2-chlorophenyl) ((3,8-dicyano-4-(neopentylamino)quinolin-6-yl)amino)methyl)-1H-1,2,3-triazol-1-yl)tetrahydrofuran-3-carboxamide]: in experiment [1] (setting [5]), the EC50 was 503 nM. The IC50 in experiment [2] (setting [6]) turned out to be 7 nM.

Turning to `CC(C)(C)CCNc1c(C#N)cnc2c(Cl)cc(N[C@@H](c3ccccc3)c3cn(C4CCN(C(C)(C)C)CC4)nn3)cc12` [Example 474, (S)-6-(((1-(1-(tert-butyl)piperidin-4-yl)-1H-1,2,3-triazol-4 yl)(phenyl)methyl)amino)-8-chloro-4-((3,3-dimethylbutyl)amino) quinoline-3-carbonitrile], in experiment [1] (setting [3]), the concentration giving a half-maximal response (EC50) came out at 1570 nM. The IC50 in experiment [2] (setting [4]) worked out at 68 nM.

`[2H][C@](Nc1cc(Cl)c2ncc(C#N)c(Nc3cccc(Cl)c3OC3CC3)c2c1)(c1ccc(F)cc1)c1cn(C2CC2)nn1` [Example 110, (S)-8-chloro-4-((3-chloro-2-cyclopropoxyphenyl)amino)-6-(((1-cyclopropyl-1H-1,2,3-triazol-4-yl)(4-fluorophenyl)methyl-d)amino) quinoline-3-carbonitrile]: the EC50 in experiment [1] (setting [3]) is 133 nM. In addition, the IC50 in experiment [2] (setting [7]) was 16 nM.

Turning to `Cc1cccc(Nc2c(C#N)cnc3c(Cl)cc(N[C@@H](c4ccc(Cl)cc4)c4cn(C5CCN(C(C)(C)C)CC5)nn4)cc23)c1` [Example 741, (S)-6-(((1-(1-(tert-butyl)piperidin-4-yl)-1H-1,2,3-triazol-4-yl)(4-chlorophenyl)methyl)amino)-8-chloro-4-(m-tolylamino)quinoline-3-carbonitrile], the concentration giving a half-maximal response (EC50) in experiment [1] (setting [3]) stood at 1240 nM. For the same molecule, in experiment [2] (setting [4]), the half-maximal inhibitory concentration (IC50) was found to be 122 nM.

Turning to `[2H][C@](Nc1cc(Cl)c2ncc(C#N)c(NC3COC3)c2c1)(c1ccc(F)cc1)c1cn(C2CC2)nn1` [Example 201, (S)-8-chloro-6-(((1-cyclopropyl-1H-1,2,3-triazol-4-yl)(4-fluorophenyl)methyl-d)amino)-4-(oxetan-3-ylamino) quinoline-3-carbonitrile], in experiment [1] (setting [3]), the concentration for a half-maximal effect (EC50) stood at 2540 nM. The concentration for half-maximal inhibition (IC50) in experiment [2] (setting [7]) amounted to 251 nM.

Regarding `CC(C)N1CCC(n2cc([C@@H](Nc3cc(Cl)c4ncc(C#N)c(Nc5ccc(F)c(Cl)c5)c4c3)c3ccc(F)cc3)nn2)CC1` [Example 825, (S)-8-chloro-4-((3-chloro-4-fluorophenyl)amino)-6-(((4-fluorophenyl)(1-(1-isopropylpiperidin-4-yl)-1H-1,2,3-triazol-4-yl)methyl)amino)quinoline-3-carbonitrile], the EC50 in experiment [1] (setting [3]) came to 150 nM. Further, the 50% inhibitory concentration (IC50) in experiment [2] (setting [4]) was 4 nM.

For the molecule `COCCn1cc([C@@H](Nc2cc(Cl)c3ncc(C#N)c(Nc4ccc(F)c(Cl)c4)c3c2)c2ccccc2)nn1` [Example 795, (S)-8-chloro-4-((3-chloro-4-fluorophenyl)amino)-6-(((1-(2-methoxyethyl)-1H-1,2,3-triazol-4-yl)(phenyl)methyl)amino)quinoline-3-carbonitrile], the EC50 in experiment [1] (setting [3]) was found to be 314 nM. Besides, in experiment [2] (setting [4]), the IC50 is 13 nM.

`COc1ccc(Nc2c(C#N)cnc3c(Cl)cc(N[C@@H](c4ccccc4)c4cn(C5COC5)nn4)cc23)cn1` [Example 491, (S)-8-chloro-4-((6-methoxypyridin-3-yl)amino)-6-(((1-(oxetan-3-yl)-1H-1,2,3-triazol-4-yl)(phenyl)methyl)amino) quinoline-3-carbonitrile]: the EC50 in experiment [1] (setting [3]) came to 3840 nM. Moreover, in experiment [2] (setting [4]), the half-inhibitory concentration (IC50) is 123 nM.

On to `Cc1ccccc1[C@H](Nc1cc(Cl)c2ncc(C#N)c(NCC(C)(C)C)c2c1)c1cn(C2CC2)nn1` [Compound 3], for which the EC50 in experiment [1] (setting [3]) was 246 nM. For the same molecule, the IC50 in experiment [2] (setting [7]) worked out at 7 nM.

In the case of `N#Cc1cnc2c(Cl)cc(N[C@H](c3cn(C4CC4)nn3)c3ccccc3F)cc2c1Nc1cnc(F)c(F)c1` [Example 430, (S)-8-chloro-6-(((1-cyclopropyl-1H-1,2,3-triazol-4-yl)(2-fluorophenyl)methyl)amino)-4-((5,6-difluoropyridin-3-yl)amino)quinoline-3-carbonitrile], the half-maximal effective concentration (EC50) in experiment [1] (setting [3]) worked out at 679 nM. Also, the concentration for half-maximal inhibition (IC50) in experiment [2] (setting [4]) amounted to 7 nM.

These data come from patent US10316017B2, “COT modulators and methods of use thereof” (Gilead Sciences, Inc., priority 2015, dated 2019).
